Numbers after ± are expanded uncertainties.

A short description of one series: activity coefficient (dimensionless); of the first substance listed, at infinite dilution; xn = mol fraction of the nth substance listed. To be noted: 403.15 K; 101 kPa; Liquid; Chromatography; x1 = 0.
`C[C@@H]1CCCC[C@H]1C` [trans-1,2-dimethylcyclohexane] + CCCCCCCCCCCCCCCCCCC(CCCCCCCCCCCCCCCCCC)CCCCC(CCCCCCCCCCCCCCCCCC)CCCCCCCCCCCCCCCCCC: the activity coefficient is 0.29 ± 0.036.
On the same count and under the same terms, with `C[C@H]1CC[C@H](C)CC1` [trans-1,4-dimethylcyclohexane] + CCCCCCCCCCCCCCCCCCC(CCCCCCCCCCCCCCCCCC)CCCCC(CCCCCCCCCCCCCCCCCC)CCCCCCCCCCCCCCCCCC the figure was 0.297 ± 0.036; with `C1CC[C@@H]2CCC[C@H]2C1` [trans-bicyclo[4.3.0]nonane] + CCCCCCCCCCCCCCCCCCC(CCCCCCCCCCCCCCCCCC)CCCCC(CCCCCCCCCCCCCCCCCC)CCCCCCCCCCCCCCCCCC, 0.276 ± 0.036; with `C1CC[C@H]2CCCC[C@@H]2C1` [trans-decahydronaphthalene] + CCCCCCCCCCCCCCCCCCC(CCCCCCCCCCCCCCCCCC)CCCCC(CCCCCCCCCCCCCCCCCC)CCCCCCCCCCCCCCCCCC, 0.283 ± 0.036.
The same measure, in the same setting: the value for `CCCCCCCCCCCCC` [tridecane] + CCCCCCCCCCCCCCCCCCC(CCCCCCCCCCCCCCCCCC)CCCCC(CCCCCCCCCCCCCCCCCC)CCCCCCCCCCCCCCCCCC was 0.479 ± 0.033; that for `CCCCCCCCCCC` [undecane] + CCCCCCCCCCCCCCCCCCC(CCCCCCCCCCCCCCCCCC)CCCCC(CCCCCCCCCCCCCCCCCC)CCCCCCCCCCCCCCCCCC was 0.44 ± 0.033.

Still in this series, the particulars now being: 418.15 K; 101 kPa; Liquid; Chromatography; x1 = 0.
As for `C=CCCCCCC` [oct-1-ene] + CCCCCCCCCCCCCCCCCCC(CCCCCCCCCCCCCCCCCC)CCCCC(CCCCCCCCCCCCCCCCCC)CCCCCCCCCCCCCCCCCC, the activity coefficient is 0.375 ± 0.034.
On the same count and under the same terms, the value for `CCCCCCCC` [octane] + CCCCCCCCCCCCCCCCCCC(CCCCCCCCCCCCCCCCCC)CCCCC(CCCCCCCCCCCCCCCCCC)CCCCCCCCCCCCCCCCCC was 0.384 ± 0.034; that for `CCCCC` [pentane] + CCCCCCCCCCCCCCCCCCC(CCCCCCCCCCCCCCCCCC)CCCCC(CCCCCCCCCCCCCCCCCC)CCCCCCCCCCCCCCCCCC was 0.345 ± 0.035.
Same read-out and setting: the value for `CCCCCc1ccccc1` [pentylbenzene] + CCCCCCCCCCCCCCCCCCC(CCCCCCCCCCCCCCCCCC)CCCCC(CCCCCCCCCCCCCCCCCC)CCCCCCCCCCCCCCCCCC was 0.38 ± 0.034; that for `CCCc1ccccc1` [propylbenzene] + CCCCCCCCCCCCCCCCCCC(CCCCCCCCCCCCCCCCCC)CCCCC(CCCCCCCCCCCCCCCCCC)CCCCCCCCCCCCCCCCCC was 0.331 ± 0.035.
The same measure, in the same setting: the value for `CCCCCCCCCCCCCC` [tetradecane] + CCCCCCCCCCCCCCCCCCC(CCCCCCCCCCCCCCCCCC)CCCCC(CCCCCCCCCCCCCCCCCC)CCCCCCCCCCCCCCCCCC was 0.495 ± 0.033.
Take `Cc1ccccc1` [toluene] + CCCCCCCCCCCCCCCCCCC(CCCCCCCCCCCCCCCCCC)CCCCC(CCCCCCCCCCCCCCCCCC)CCCCCCCCCCCCCCCCCC: the activity coefficient was found to be 0.278 ± 0.036.
Same read-out and setting: the value for `C[C@@H]1CCCC[C@H]1C` [trans-1,2-dimethylcyclohexane] + CCCCCCCCCCCCCCCCCCC(CCCCCCCCCCCCCCCCCC)CCCCC(CCCCCCCCCCCCCCCCCC)CCCCCCCCCCCCCCCCCC was 0.288 ± 0.036; that for `C[C@H]1CC[C@H](C)CC1` [trans-1,4-dimethylcyclohexane] + CCCCCCCCCCCCCCCCCCC(CCCCCCCCCCCCCCCCCC)CCCCC(CCCCCCCCCCCCCCCCCC)CCCCCCCCCCCCCCCCCC was 0.298 ± 0.036; that for `C1CC[C@@H]2CCC[C@H]2C1` [trans-bicyclo[4.3.0]nonane] + CCCCCCCCCCCCCCCCCCC(CCCCCCCCCCCCCCCCCC)CCCCC(CCCCCCCCCCCCCCCCCC)CCCCCCCCCCCCCCCCCC was 0.273 ± 0.036.
Turning to `C1CC[C@H]2CCCC[C@@H]2C1` [trans-decahydronaphthalene] + CCCCCCCCCCCCCCCCCCC(CCCCCCCCCCCCCCCCCC)CCCCC(CCCCCCCCCCCCCCCCCC)CCCCCCCCCCCCCCCCCC, the activity coefficient is 0.28 ± 0.036.
On the same count and under the same terms, the value for `CCCCCCCCCCCCC` [tridecane] + CCCCCCCCCCCCCCCCCCC(CCCCCCCCCCCCCCCCCC)CCCCC(CCCCCCCCCCCCCCCCCC)CCCCCCCCCCCCCCCCCC was 0.48 ± 0.033; that for `CCCCCCCCCCC` [undecane] + CCCCCCCCCCCCCCCCCCC(CCCCCCCCCCCCCCCCCC)CCCCC(CCCCCCCCCCCCCCCCCC)CCCCCCCCCCCCCCCCCC was 0.442 ± 0.033.

Staying with this series, now noted: 433.15 K; 101 kPa; Liquid; Chromatography; x1 = 0.
Regarding `C=CCCCCCC` [oct-1-ene] + CCCCCCCCCCCCCCCCCCC(CCCCCCCCCCCCCCCCCC)CCCCC(CCCCCCCCCCCCCCCCCC)CCCCCCCCCCCCCCCCCC, the activity coefficient was 0.377 ± 0.034.
For `CCCCCCCC` [octane] + CCCCCCCCCCCCCCCCCCC(CCCCCCCCCCCCCCCCCC)CCCCC(CCCCCCCCCCCCCCCCCC)CCCCCCCCCCCCCCCCCC, the activity coefficient was found to be 0.386 ± 0.034.
The same measure, in the same setting: with `CCCCC` [pentane] + CCCCCCCCCCCCCCCCCCC(CCCCCCCCCCCCCCCCCC)CCCCC(CCCCCCCCCCCCCCCCCC)CCCCCCCCCCCCCCCCCC the figure was 0.349 ± 0.035; with `CCCCCc1ccccc1` [pentylbenzene] + CCCCCCCCCCCCCCCCCCC(CCCCCCCCCCCCCCCCCC)CCCCC(CCCCCCCCCCCCCCCCCC)CCCCCCCCCCCCCCCCCC, 0.376 ± 0.034; with `CCCc1ccccc1` [propylbenzene] + CCCCCCCCCCCCCCCCCCC(CCCCCCCCCCCCCCCCCC)CCCCC(CCCCCCCCCCCCCCCCCC)CCCCCCCCCCCCCCCCCC, 0.33 ± 0.035.
For `CCCCCCCCCCCCCC` [tetradecane] + CCCCCCCCCCCCCCCCCCC(CCCCCCCCCCCCCCCCCC)CCCCC(CCCCCCCCCCCCCCCCCC)CCCCCCCCCCCCCCCCCC, the activity coefficient turned out to be 0.495 ± 0.033.
For `Cc1ccccc1` [toluene] + CCCCCCCCCCCCCCCCCCC(CCCCCCCCCCCCCCCCCC)CCCCC(CCCCCCCCCCCCCCCCCC)CCCCCCCCCCCCCCCCCC, the activity coefficient amounted to 0.275 ± 0.036.
Still for that read-out and setting: with `C[C@@H]1CCCC[C@H]1C` [trans-1,2-dimethylcyclohexane] + CCCCCCCCCCCCCCCCCCC(CCCCCCCCCCCCCCCCCC)CCCCC(CCCCCCCCCCCCCCCCCC)CCCCCCCCCCCCCCCCCC the figure was 0.295 ± 0.036.
On to `C[C@H]1CC[C@H](C)CC1` [trans-1,4-dimethylcyclohexane] + CCCCCCCCCCCCCCCCCCC(CCCCCCCCCCCCCCCCCC)CCCCC(CCCCCCCCCCCCCCCCCC)CCCCCCCCCCCCCCCCCC, for which the activity coefficient is 0.299 ± 0.036.
As for `C1CC[C@@H]2CCC[C@H]2C1` [trans-bicyclo[4.3.0]nonane] + CCCCCCCCCCCCCCCCCCC(CCCCCCCCCCCCCCCCCC)CCCCC(CCCCCCCCCCCCCCCCCC)CCCCCCCCCCCCCCCCCC, the activity coefficient is 0.277 ± 0.036.
Same read-out and setting: the value for `C1CC[C@H]2CCCC[C@@H]2C1` [trans-decahydronaphthalene] + CCCCCCCCCCCCCCCCCCC(CCCCCCCCCCCCCCCCCC)CCCCC(CCCCCCCCCCCCCCCCCC)CCCCCCCCCCCCCCCCCC was 0.287 ± 0.036; that for `CCCCCCCCCCCCC` [tridecane] + CCCCCCCCCCCCCCCCCCC(CCCCCCCCCCCCCCCCCC)CCCCC(CCCCCCCCCCCCCCCCCC)CCCCCCCCCCCCCCCCCC was 0.481 ± 0.033; that for `CCCCCCCCCCC` [undecane] + CCCCCCCCCCCCCCCCCCC(CCCCCCCCCCCCCCCCCC)CCCCC(CCCCCCCCCCCCCCCCCC)CCCCCCCCCCCCCCCCCC was 0.444 ± 0.033.

Assay in another series: not given
To be noted: Crystal; visual observation.
As for `CCCCCCCCCCCCCCCCCCC(CCCCCCCCCCCCCCCCCC)CCCCC(CCCCCCCCCCCCCCCCCC)CCCCCCCCCCCCCCCCCC` [19,24-dioctadecyldotetracontane], the Normal melting temperature was determined as 72 ± 6 °C.
